The subject of the assay is L1210 leukemia ip in BDF1 mice, survival T/C. The assay can be described thus: NCI In Vivo Anticancer Drug Screen. Data for tumor model L1210 Leukemia (intraperitoneal) in B6D2F1 (BDF1) mice. Conditions: endpoint: mean survival time, higher = longer survival. An outline of the steps:
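Survival endpoint. Drug-treated group vs vehicle group, expressed as T divided by C. Tumor passaged by transplantation.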

Where [1] appears, read: dose: 100.0 mg/kg/injection, schedule: Q01DX001 (ip), vehicle: saline.
The mark [2] stands for this setting: dose: 200.0 mg/kg/injection, schedule: Q01DX001 (ip), vehicle: saline.
The mark [3] stands for this setting: dose: 400.0 mg/kg/injection, schedule: Q01DX001 (ip), vehicle: saline.
[4] abbreviates: dose: 100.0 mg/kg/injection, schedule: Q04DX002 (ip), vehicle: saline.
The mark [5] stands for this setting: dose: 50.0 mg/kg/injection, schedule: Q01DX001 (ip), vehicle: saline.
Where [6] appears, read: dose: 100.0 mg/kg/injection, schedule: Q04DX002 (ip), vehicle: saline with Tween-80.
Where [7] appears, read: dose: 200.0 mg/kg/injection, schedule: Q04DX002 (ip), vehicle: saline with Tween-80.
The mark [8] stands for this setting: dose: 20.0 mg/kg/injection, schedule: Q04DX003 (ip), vehicle: Klucel (hydroxypropylcellulose) (HPC).
The mark [9] stands for this setting: dose: 100.0 mg/kg/injection, schedule: Q04DX003 (ip), vehicle: saline with Tween-80.
Setting [10] is: dose: 200.0 mg/kg/injection, schedule: Q04DX003 (ip), vehicle: saline with Tween-80.
[11] abbreviates: dose: 400.0 mg/kg/injection, schedule: Q04DX003 (ip), vehicle: saline with Tween-80.
Setting [12] is: dose: 100.0 mg/kg/injection, schedule: Q01DX001 (ip), vehicle: Klucel (hydroxypropylcellulose) (HPC).
Where [13] appears, read: dose: 200.0 mg/kg/injection, schedule: Q01DX001 (ip), vehicle: Klucel (hydroxypropylcellulose) (HPC).
[14] abbreviates: dose: 50.0 mg/kg/injection, schedule: Q01DX009 (ip), vehicle: saline.
Where [15] appears, read: dose: 50.0 mg/kg/injection, schedule: Q01DX009 (ip), vehicle: saline with Tween-80.
Where [16] appears, read: dose: 400.0 mg/kg/injection, schedule: Q01DX009 (ip), vehicle: saline with Tween-80.
Where [17] appears, read: dose: 100.0 mg/kg/injection, schedule: Q01DX009 (ip), vehicle: saline with Tween-80.
Where [18] appears, read: dose: 100.0 mg/kg/injection, schedule: Q04DX003 (ip), vehicle: Klucel (hydroxypropylcellulose) (HPC).
The mark [19] stands for this setting: dose: 200.0 mg/kg/injection, schedule: Q04DX003 (ip), vehicle: Klucel (hydroxypropylcellulose) (HPC).
Where [20] appears, read: dose: 400.0 mg/kg/injection, schedule: Q04DX003 (ip), vehicle: Klucel (hydroxypropylcellulose) (HPC).

Values joined by “and” are separate entries in the source; they are usually repeats but may differ in a detail not shown here. Identical values can stand only once. Inconclusive results and toxic doses are left out.

On to `CCOc1ccn(C2OC(COC(C)=O)C(OC(C)=O)C(OC(C)=O)C2Nc2ccc([N+](=O)[O-])cc2[N+](=O)[O-])c(=O)n1` (stereo not drawn), for which the T/C reads like this: under setting [1], 103 % of control; under setting [2], 100 % of control; under setting [3], 97 % of control.

With `CCCCC(=O)N/N=C/c1ccc(NC(C)=O)cc1`, the T/C reads like this: under setting [1], 102 % of control; under setting [2], 102 % of control; under setting [3], 102 % of control.

Consider `CCOC(=O)N(OCc1ccccc1)P(=O)(N1CC1(C)C)N1CC1(C)C` (stereo not drawn), for which the T/C runs as follows: under setting [4], 158 % of control; (dose: 200.0 mg/kg/injection, schedule: Q04DX002 (ip), vehicle: saline) 153 % of control.

Regarding `CCN(CC)CCC#N`, the T/C is, setting by setting: under setting [5], 94 % of control; under setting [1], 94 % of control; under setting [2], 100 % of control.

Take `C/C(=N/N(CCCCN(/N=C(/C)c1ccccc1)c1ccccc1)c1ccccc1)c1ccccc1`: the T/C reads like this: under setting [5], 97 % of control; under setting [1], 95 % of control; under setting [2], 92 % of control; under setting [3], 92 % of control.

Take `CC1(C)CSCC(C)(C)/C(=N/O)C1=O`: the T/C by setting is: (dose: 50.0 mg/kg/injection, schedule: Q04DX002 (ip), vehicle: saline with Tween-80) 101 % of control; under setting [6], 112 % of control; under setting [7], 101 % of control.

Take `O=[N+]([O-])c1cc([N+](=O)[O-])c(Br)cc1Cl`: the T/C runs as follows: (dose: 10.0 mg/kg/injection, schedule: Q04DX003 (ip), vehicle: Klucel (hydroxypropylcellulose) (HPC)) 93 % of control; under setting [8], 96 % of control.

As for `O=C1C2C3CCC(C4OCCO4)(O3)C2C(=O)N1Cc1ccccc1` (stereo not drawn), the T/C reads like this: (dose: 100.0 mg/kg/injection, schedule: Q04DX002 (ip), vehicle: Klucel (hydroxypropylcellulose) (HPC)) 107 % of control; (dose: 200.0 mg/kg/injection, schedule: Q04DX002 (ip), vehicle: Klucel (hydroxypropylcellulose) (HPC)) 103 % of control; (dose: 400.0 mg/kg/injection, schedule: Q04DX002 (ip), vehicle: Klucel (hydroxypropylcellulose) (HPC)) 96 % of control.

Consider `CCCC(C)C(C#N)C(=O)OCC` (stereo not drawn), for which the T/C runs as follows: under setting [9], 106 % of control; under setting [10], 101 % of control; under setting [11], 105 % of control.

Turning to `CCCCOC(OCCCC)c1ccccc1`, the T/C is 95 % of control (dose: 50.0 mg/kg/injection, schedule: Q01DX001 (ip), vehicle: carboxymethylcellulose (CMC)) and 88 % of control (dose: 100.0 mg/kg/injection, schedule: Q01DX001 (ip), vehicle: carboxymethylcellulose (CMC)).

With `NCC(=O)NC(CSSCC(N)C(=O)O)C(=O)O` (stereo not drawn), the T/C by setting is: (dose: 25.0 mg/kg/injection, schedule: Q04DX002 (ip), vehicle: saline) 103 % of control; (dose: 50.0 mg/kg/injection, schedule: Q04DX002 (ip), vehicle: saline) 103 % of control; under setting [4], 100 % of control.

Turning to `CNC(=O)O/N=C\C=N\OC(=O)NC`, the T/C runs as follows: under setting [1], 93 % of control; under setting [2], 98 % of control; under setting [3], 95 % of control.

As to `O=C(COc1ccc(Cl)c(Cl)c1)NCc1cc[n+](Cc2ccc(S(=O)(=O)F)cc2)cc1`, the T/C is, setting by setting: under setting [12], 95 % of control; under setting [13], 95 % of control.

Regarding `O=C(Nc1cccc2c1C(=O)c1cccc(Cl)c1C2=O)c1ccccc1`, the T/C runs as follows: under setting [9], 87 % of control; under setting [10], 89 % of control; under setting [11], 86 % of control.

As for `CCCCNC(C)(C)CO`, the T/C (dose: 12.5 mg/kg/injection, schedule: Q01DX009 (ip), vehicle: saline) is 106 % of control; the T/C (dose: 12.5 mg/kg/injection, schedule: Q04DX003 (ip), vehicle: saline) was 100 % of control; the T/C (dose: 25.0 mg/kg/injection, schedule: Q01DX009 (ip), vehicle: saline) was 112 % of control; the T/C (dose: 25.0 mg/kg/injection, schedule: Q04DX003 (ip), vehicle: saline) is 97 % of control; the T/C under setting [14] is 109 % of control; the T/C (dose: 50.0 mg/kg/injection, schedule: Q04DX003 (ip), vehicle: saline) is 102 % of control. The T/C (dose: 75.0 mg/kg/injection, schedule: Q01DX009 (ip), vehicle: saline) was 105 % of control.

Take `CN(CCN(C)Cc1ccccc1)Cc1ccccc1`: the T/C under setting [14] was 98 % of control; the T/C (dose: 100.0 mg/kg/injection, schedule: Q01DX009 (ip), vehicle: saline) was 101 % of control; the T/C (dose: 100.0 mg/kg/injection, schedule: Q04DX003 (ip), vehicle: saline) was 103 % of control; the T/C (dose: 200.0 mg/kg/injection, schedule: Q04DX003 (ip), vehicle: saline) is 98 % of control.

For the molecule `CC(=O)Nc1ccc(OC(=O)Nc2cccc(Cl)c2C)cc1`, the T/C by setting is: under setting [15], 88 % of control and 92 % of control; (dose: 100.0 mg/kg/injection, schedule: Q01DX001 (ip), vehicle: saline with Tween-80) 92 % of control; under setting [6], 87 % of control and 89 % of control; under setting [9], 93 % of control; (dose: 200.0 mg/kg/injection, schedule: Q01DX001 (ip), vehicle: saline with Tween-80) 94 % of control; under setting [7], 86 % of control. Besides, the T/C runs as follows: under setting [10], 87 % of control; (dose: 400.0 mg/kg/injection, schedule: Q01DX001 (ip), vehicle: saline with Tween-80) 100 % of control; under setting [16], 101 % of control; (dose: 400.0 mg/kg/injection, schedule: Q04DX002 (ip), vehicle: saline with Tween-80) 96 % of control and 86 % of control; under setting [11], 90 % of control.

Take `CN(C)c1ccc(/C=N/NC(=O)c2ccc(Cl)cc2)cc1`: the T/C runs as follows: under setting [15], 100 % of control; under setting [17], 89 % of control.

Regarding `OCC(F)(F)C(F)(F)C(F)(F)C(F)F`, the T/C reads like this: under setting [5], 94 % of control; under setting [1], 102 % of control; (dose: 100.0 mg/kg/injection, schedule: Q01DX009 (ip), vehicle: Klucel (hydroxypropylcellulose) (HPC)) 101 % of control; under setting [18], 102 % of control; under setting [2], 96 % of control; (dose: 200.0 mg/kg/injection, schedule: Q01DX009 (ip), vehicle: Klucel (hydroxypropylcellulose) (HPC)) 101 % of control. Besides, the T/C is 102 % of control under setting [19]; 94 % of control under setting [3]; 103 % of control (dose: 400.0 mg/kg/injection, schedule: Q01DX009 (ip), vehicle: Klucel (hydroxypropylcellulose) (HPC)); 105 % of control under setting [20].

Consider `Nc1ccc2ccc3ccc4ccccc4c3c2c1`, for which the T/C is 97 % of control under setting [12]; 104 % of control under setting [18]; 103 % of control under setting [13]; 113 % of control under setting [19]; 100 % of control (dose: 400.0 mg/kg/injection, schedule: Q01DX001 (ip), vehicle: Klucel (hydroxypropylcellulose) (HPC)); 90 % of control under setting [20].

For `CC/C=C(\CC(=O)OCC)C(=O)OCC`, the T/C under setting [17] was 101 % of control; the T/C (dose: 200.0 mg/kg/injection, schedule: Q01DX009 (ip), vehicle: saline with Tween-80) was 96 % of control; the T/C under setting [16] is 92 % of control.

Regarding `Cc1cc(N(CCOS(C)(=O)=O)CCOS(C)(=O)=O)ccc1C=Nc1cc(Cl)c(O)c(Cl)c1`, the T/C reads like this: under setting [8], 121 % of control; (dose: 40.0 mg/kg/injection, schedule: Q04DX003 (ip), vehicle: Klucel (hydroxypropylcellulose) (HPC)) 118 % of control; (dose: 80.0 mg/kg/injection, schedule: Q04DX003 (ip), vehicle: Klucel (hydroxypropylcellulose) (HPC)) 100 % of control.

For `CCOC(=O)CSCCC1CC(=O)N1` (stereo not drawn), the T/C (dose: 100.0 mg/kg/injection, schedule: Q04DX003 (ip), vehicle: other) was 103 % of control; the T/C (dose: 200.0 mg/kg/injection, schedule: Q04DX003 (ip), vehicle: other) is 104 % of control; the T/C (dose: 400.0 mg/kg/injection, schedule: Q04DX003 (ip), vehicle: other) is 107 % of control.

The values above are taken from PubChem BioAssay AID248 (DTP/NCI, 2004).
